Test results from patent US8759304B2, “Compositions and methods for increasing telomerase activity” (Telomerase Activation Science, Inc., priority 2003, dated 2014).

Assays:
[1] = system: young neonatal keratinocytes; assay: Scratch assay (wound healing activity), young neonatal keratinocytes; type: cell-based; details: FIG. 5, 1 at 0.1 μg/ml, 2 at 0.01 μM; for WHtest (wound healing activity): WH=100−[100×Wn/W0], WHcntrl 52.6
Description: (§1) The compounds of formula I-III can be used to promote healing of wounds, burns, abrasions or other acute or chronic conditions of the epidermis, as discussed further below. As used herein, “wound healing activity as measured in a scratch assay” refers to the activity as measured in keratinocytes or fibroblasts according to the following protocol, and expressed as the value of WH shown in the formula below.
(§2) Cells are plated in flasks (5×10^5 cells per flask) and cultured for two days in a humidified chamber at 5% CO2, 37° C. To create the “wound”, a 2 ml plastic pipette is gently dragged to “scratch” the cell surface. The ideal wound is approximately 2-3 mm wide and 50 mm long (along the long axis of the tissue culture flask). The cells are retreated with medium containing either vehicle (DMSO; control sample) or test compositions at multiple concentrations. A wound area is identified, the flask marked, and the appearance of the cells documented photographically over 3-4 days continued culturing of the cells.
(§3) Amount of wound closure is determined by measuring the width of the wound over time for compound-treated samples relative to vehicle-treated or other control cells. Measurements are made from the photographs taken for each of the samples on days 1 (immediately after scratching), 2, 3, and 4. Percentage of wound healing (also expressed as “wound healing activity”) is calculated by the following formula: WH=100−[100×Wn/W0], where Wn is the width of the wound on day n and W0 is the width of the wound on day one (i.e. immediately after scratching).
(§4) Wound healing activity of invention compounds 1 (astragaloside IV) and 2 (cycloastragenol) was evaluated in aging keratinocytes, via a scratch assay as described above.

[2] = system: aging neonatal keratinocytes; assay: Scratch assay (wound closure), aging neonatal keratinocytes; type: cell-based; details: FIG. 7; compared with 50 ng/mL PDGF
Description: as §1
Cells are plated in flasks (5×10^5 cells per flask) and cultured for two days in a humidified chamber at 5% CO2, 37° C. To create the “wound”, a 2 ml plastic pipette is gently dragged to “scratch” the cell surface. The ideal wound is approximately 2-3 mm wide and 50 mm long (along the long axis of the tissue culture flask). The cells are retreated with medium containing either vehicle (DMSO; control sample) or test compositions at multiple concentrations. […]
Amount of wound closure is determined by measuring the width of the wound over time for compound-treated samples relative to vehicle-treated or other control cells. […] Percentage of wound healing (also expressed as “wound healing activity”) is calculated by the following formula: WH=100−[100×Wn/W0], where Wn is the width of the wound on day n and W0 is the width of the wound on day one (i.e. immediately after scratching). […]

[3] = system: aging adult keratinocytes; assay: Scratch assay (wound healing activity), aging adult keratinocytes; type: cell-based; details: FIG. 4; for Approx. wound width Day1 test: 0.1 μg/ml (about 0.13 μM) 1
Description: as §1, §2, §3, §4
(GRN163 is a telomerase inhibitor oligonucleotide that targets the template region of the telomerase RNA component. Specifically, GRN 163 is a 13-mer N3′→P5′ thiophosphoramidate oligonucleotide, described in detail in PCT Pubn. No. WO 01/18015. GRN137227 is a 13-mer N3′→P5′ thiophosphoramidate control oligonucleotide having a mismatched sequence.)

[4] = system: telomerase activity in HEKneoP cells (neonatal keratinocytes); assay: TRAP assay of telomerase activity in HEKneoP cells (neonatal keratinocytes); type: cell-based, human; details: for MEC (minimum effective concentration producing telomerase activity twice that of DMSO control): 100% greater than DMSO control
[5] = system: Salmonella Typhimurium tester strains TA98, TA100, TA1535, TA 1537 and E. coli tester strain WP2 uvrA; assay: Ames test (reverse bacterial mutation); details: levels up to 5000 μg/plate
Description: (§5) Studies in support of the invention indicate that the compounds of formula I-III have excellent bioavailability and low toxicity. For example, a representative compound, cycloastragenol (2), was negative for reverse bacterial mutation potential in the Ames test, employing Salmonella Typhimurium tester strains TA98, TA100, TA1535, TA 1537 and E. coli tester strain WP2 uvrA, at levels up to 5000 μg/plate. It was well-tolerated systemically in Sprague-Dawley rats, after single intravenous injections up to 10 mg/kg.

[6] = system: Sprague-Dawley rats; assay: Systemic tolerance after single intravenous injection in rats; type: in vivo; details: single intravenous injections up to 10 mg/kg
Description: as §5

[7] = day 1 immediately after scratching

## CC(C)(O)[C@@H]1CC[C@](C)([C@H]2[C@@H](O)C[C@@]3(C)[C@@H]4C[C@H](O[C@@H]5O[C@H](CO)[C@@H](O)[C@H](O)[C@H]5O)[C@H]5C(C)(C)[C@@H](O[C@@H]6OC[C@@H](O)[C@H](O)[C@H]6O)CC[C@@]56C[C@@]46CC[C@]23C)O1 [Compound 1, astragaloside IV]
[1]
  Approx. wound width Day1 test: 0 arbitrary units
  WHtest (wound healing activity): 100
[1]; [7]
  Approx. wound width Day1 test: 18 arbitrary units
[2]
  wound closure as percent of control, effectiveness: comparable to that of PDGF
[3]; 0.1 μg/ml 1, WH=100−[100×Wn/W0], WHcntrl 54.5
  WHtest (wound healing activity): 100
[3]
  Approx. wound width Day1 test: 0 arbitrary units
[3]; [7]
  Approx. wound width Day1 test: 17 arbitrary units
[3]; 0.1 μg/ml (about 0.13 μM) 1 in DMSO, control still had sizable wound at day 4
  state of scratch wound in treated cells: confluent at day 4
[4]
  MEC (minimum effective concentration producing telomerase activity twice that of DMSO control): 0.01 µM
[4]; at 1.0 μM in DMSO, maximum, decreased at higher concentration up to 10 μM
  telomerase activity: about 360 % of control

## CC(C)(O)[C@@H]1CC[C@](C)([C@H]2[C@@H](O)C[C@@]3(C)[C@@H]4C[C@H](O)[C@H]5C(C)(C)[C@@H](O)CC[C@@]56C[C@@]46CC[C@]23C)O1 [Compound 2, cycloastragenol]
[5]
  reverse bacterial mutation potential: negative
[6]; males or females
  changes in behavior (eating, drinking), gross weight, organ weights, hematology or clinical chemistry: No significant dose-dependent changes
[6]
  systemic tolerance: well-tolerated
[1]
  Approx. wound width Day1 test: 2 arbitrary units
  WHtest (wound healing activity): 90.5
[1]; [7]
  Approx. wound width Day1 test: 21 arbitrary units
[4]
  MEC (minimum effective concentration producing telomerase activity twice that of DMSO control): 0.01 µM
[4]; at 0.1 μM in DMSO, maximum, decreased with further increases in concentration
  telomerase activity: about 300 % of control

## CC(C)(O)[C@@H]1CC[C@](C)([C@H]2[C@@H](O)C[C@@]3(C)[C@@H]4C[C@H](O)[C@H]5C(C)(C)[C@@H](O)CC[C@]5(C)C4=CC[C@]23C)O1 [Compound 3, astragenol]
[4]
  MEC (minimum effective concentration producing telomerase activity twice that of DMSO control): 0.03 µM

## CC1(C)C2=CC[C@@H]3[C@@](C)(CC[C@]4(C)[C@@H]([C@@]5(C)CC[C@@H](C(C)(C)O)O5)[C@@H](O)C[C@@]34C)C2=CCC1O (stereo partly drawn) [Compound 5, 20R,24S-epoxy-3β,16β,25-trihydroxy-9β-methyl-19-norlanost-1,5-diene]
[4]
  MEC (minimum effective concentration producing telomerase activity twice that of DMSO control): 0.10 µM

## CC(C)(O)[C@@H]1CC[C@](C)([C@H]2[C@@H](O)C[C@@]3(C)[C@@H]4C[C@H](OC5O[C@H](CO)[C@@H](O)[C@H](O)[C@H]5O)[C@H]5C(C)(C)C(O)CCC56C[C@@]46CC[C@]23C)O1 (stereo partly drawn) [Compound 6, cycloastragenol 6-β-D-glucopyranoside]
[4]
  MEC (minimum effective concentration producing telomerase activity twice that of DMSO control): 3.2 µM

## CC(C)(O)[C@@H]1CC[C@](C)([C@H]2[C@@H](O)C[C@@]3(C)[C@@H]4C[C@H](O)[C@H]5C(C)(C)C(O[C@@H]6OC[C@@H](O)[C@H](O)[C@H]6O)CCC56C[C@@]46CC[C@]23C)O1 (stereo partly drawn) [Compound 7, cycloastragenol 3-β-D-xylopyranoside]
[4]
  MEC (minimum effective concentration producing telomerase activity twice that of DMSO control): 3.2 µM

## CC(C)=CCC[C@](C)(O)[C@H]1CC[C@]2(C)[C@@H]1[C@H](O)C[C@@H]1[C@@]3(C)CC[C@H](O)C(C)(C)[C@@H]3[C@@H](O[C@@H]3O[C@H](CO)[C@@H](O)[C@H](O)[C@H]3O)C[C@]12C [Compound 8, ginsenoside RH1]
[4]
  MEC (minimum effective concentration producing telomerase activity twice that of DMSO control): 10 µM

## EGF: epidermal growth factor
[4]; cells treated with 10 nM EGF
  telomerase activity: about 200%

## astragaloside IV 16-one [Compound 4]
[4]
  MEC (minimum effective concentration producing telomerase activity twice that of DMSO control): 0.03 µM
